The source of these data is patent US9365559B2, “Crystal form of Dabrafenib and preparation method of use thereof” (Hangzhou Pushai Pharmaceutical Technology Co., LTD., priority 2013, dated 2016).

“Also recorded” adds a separate entry of the source.

A short description of data set [1]: Thermogravimetric analysis (TGA), thermal stability. The format is physicochemical. As for the experimental part: The thermogravimetric analysis (TGA) data are collected by TA Instruments Q500 TGA; the instrument control software is Thermal Advantage and the analysis software is Universal Analysis. Generally, take 5˜15 mg sample and place it in a platinum pan, adopt the segmental high-resolution testing mode, and under the protection of 50 mL/min dry N2, heat the sample from room temperature to 300° C. at the heating rate of 10° C./min, the weight changes of the sample during the course are recorded by TA software simultaneously.

Data set [2] can be described thus: Crystal form stability on stirring in or exposure to water, aqueous ethanol or other solvent. The class given is physicochemical. To be noted: stirred in water or aqueous ethanol solution at room temperature or high temperature (40° C.).
A short description of data set [3]: Competition test (suspension of equal amounts stirred overnight, XRPD). The note with it: in pure water, room temperature, stirred overnight. The class given is physicochemical. The source says:
The competition test is: take equal amount of the samples, and respectively place them in isopropanol or in a mixture of water (pure water) and ethanol (wherein the volume percentage of ethanol is 0%, 20%, 50%, 80% and 100%, respectively) to form a suspension, stir it overnight at room temperature, then compare their XRPDs.

A short description of data set [4]: Storage stability test (XRPD before and after storing). The format is physicochemical. To be noted: room temperature-97% RH, -75% RH, -44% RH or oven of 40° C. The source says: The storage stability test is: storing the sample under constant conditions (i.e. constant humidity or constant temperature) for a certain time, and then comparing the XRPDs before and after storing.

The nature of data set [5]: Crystal form stability during wet granulation tablet preparation (XRPD). The class given is physicochemical. To be noted: tablet prepared by wet granulation, stored 6 months at 40° C./75% RH.
The nature of data set [6]: Crystal form stability in capsules prepared by wet granulation (XRPD). The class given is physicochemical. The source says:
The preparation of the capsules containing the crystal forms of the present invention.
3) Blend API (selected from the Known Crystal Form 1, the Known Crystal Form 2 and Crystal Form VI of the present invention), microcrystalline cellulose (avicel) and sodium carboxymethyl starch (SSG) uniformly.
4) Make the above mixture into soft materials by using an appropriate amount of 50% aqueous ethanol solution, then screen to produce the wet granules.
5) Dry the wet granules, grind and disperse uniformly and then transfer them into the capsules.

Data set [7] can be described thus: Crystal form stability during wet granulation tablet preparation (XRPD). The class given is physicochemical. The text has this:
The Known Crystal Form 1, the Known Crystal Form 2 and Crystal Form VI of the present invention are examined for their stability during the formulation preparation of the wet granulation process.
The preparation process of the tablet is a parallel experiment.
(1) Blend API (selected from the Known Crystal Form 1, the Known Crystal Form 2 or Crystal Form VI of the present invention), lactose (monohydrate) and microcrystalline cellulose uniformly.
(2) Make the above mixture into soft materials by using an appropriate amount of 50% aqueous ethanol solution, screen to produce the wet granules and then dry the wet granules.
(3) Granulate the dried sample, blend with polyethylene glycol 6000 uniformly and then compress into tablets.
Respectively, take XRPD tests on the following samples obtained in the formulation preparing process of the Known Crystal Form 1, the Known Crystal Form 2 and Crystal Form VI of the present invention: (Sample 1) the sample obtained by physically blending API, lactose, microcrystalline cellulose with polyethylene glycol 6000 according to the preparation formula; (Sample 2) the sample obtained by granulating with API, lactose, microcrystalline cellulose and polyethylene glycol 6000 according to the “wet granulation” process (excluding the sample obtained after the Step (3)); (Sample 3) excluding API, the sample obtained by physically blending lactose, microcrystalline cellulose with polyethylene glycol 6000 according to the preparation formula.

A short description of data set [8]: Crystal form stability in oral suspension (XRPD). The format is physicochemical. As for the experimental part: The preparation of the oral suspension containing the crystal forms of the present invention.
API (selected from Crystal Form VI of Dabrafenib of the present invention): 2 g;
Blend API (selected from Crystal Form VI of Dabrafenib of the present invention), cocklebur gum, sodium dihydrogen citrate, methylparaben, syrupus simplex and orange flavor, add water to 1,000 mL and stir the mixture uniformly. After that, divide the solution into 100 bottles with 20 mg API in each bottle.

A short description of data set [9]: Particle size distribution (PSD), laser diffraction. The format is physicochemical. The note with it: dispersant water with 2% tween-80. The text has this: The particle size distribution (PSD) plot is obtained using Microtrac S3500 laser diffraction particle size analyzer. The method parameters are as follows: flow velocity of the dispersant is 50%; the dispersant is water (added with 2% tween-80); the sample refractivity is 1.58; the laser source wavelength is 780 nm; and the integral mode is volume.
(§1) The morphology comparison is obtained by PLM testing of particle shape and PSD testing of particle size.

Data set [10] can be described thus: Dynamic vapor sorption (DVS) hygroscopicity. The format is physicochemical. To be noted: from DVS, 20~80% RH. As for the experimental part: The dynamic vapor sorption analysis (DVS) data are collected by TA Instruments Q5000 TGA; the instrument control software is Thermal Advantage and the analysis software is Universal Analysis. Generally, take 1˜10 mg of the sample and place it in a platinum pan, and the weight changes of the sample are recorded during the course of the relative humidity changing from 0% to 80% and then to 0%. According to the specifics of the samples, different adsorption and desorption steps may be used.
The hygroscopicity is obtained by DVS testing of the weight changes between 20%-80% RH.

A short description of data set [11]: Polarized light microscopy (PLM) morphology. The class given is physicochemical.
Description: Polarized Light Microscope (PLM) plots are collected from XP-500E polarized light microscope (by Shanghai Changfang Optical Instrument Co., Ltd). Place a small amount of powder sample on a slide glass, drip some mineral oil to disperse the powder sample, place the cover slip, then place the sample on the loading table of XP-500E polarized light microscope, choose the appropriate magnitude to observe the morphology of the sample and take pictures thereof.
as §1

Data set [12] concerns one or more Raf-family kinases. To be noted: disclosed in WO2009/137391A2 and U.S. Pat. No. 7,994,185B2; cited from earlier work.
In a further data set the test system is BRAFV600E-mutan melanoma. To be noted: patients with BRAFV600E-mutan melanoma; cited from earlier work.

On to `CC(C)(C)c1nc(-c2cccc(NS(=O)(=O)c3c(F)cccc3F)c2F)c(-c2ccnc(N)n2)s1` [Crystal Form VI, N-[3-[5-(2-aminopyrimidin-4-yl)-2-(tert-butyl)thiazo-4-lyl]-2-fluorophenyl]-2,6-difluorobenzenesulfonamide], for which the decomposition temperature in data set [1] (TGA, 10° C./min, dry N2) is 271 °C. The “stability at high temperature (in words)” value in [1] (conclusion from DSC/TGA test results) is reported as “very stable at high temperature”. Besides, the “crystal form stability when stirred” value in data set [2] is “keeps its form unchanged”. The “Competition test, comparison of stability (position in the rank order)” value in [3] is “>The Known Crystal Form 1”. Moreover, the “Storage stability (crystal form by XRPD)” value in data set [4] (stored 3 months in desiccator at room temperature) is reported as “its crystal form did not change”. Moreover, the “Storage stability (crystal form)” value in data set [4] (stored for a long time in desiccator at room temperature) is recorded as “stable when stored for a long time”. For the same compound, the “stability of tablet on storage” value in [5] was “still stable”. In addition, the “crystal form in capsules” value in data set [6] (capsules prepared by wet granulation process, XRPD) is “stable”. Moreover, in data set [6] (capsules stored 6 months at 40° C./75% RH), the “crystal form in capsules on storage” value is recorded as “still stable”. Further, the “crystal form of API after physical blending with excipients” value in [7] (XRPD of Sample 1 vs Sample 3, lactose, microcrystalline cellulose, polyethylene glycol 6000) is “keeps unchanged”. The “crystal form of API in the wet granulation process” value in data set [7] (XRPD of Sample 2 vs Sample 1, 50% aqueous ethanol solution) was “stable; also recorded: more stable than the Known Crystal Form 1 and the Known Crystal Form 2”. Moreover, in data set [7] (tablet), the “crystal form stability after tableting” value is recorded as “stable after tableting”. In addition, the “crystal form stability in the wet granulation process or in the suspension” value in data set [7] (wet granulation process or suspension) is on record as “keeps its form unchanged”. Besides, in [8] (oral suspension stored 6 months at 40° C./75% RH), the “crystal form in oral suspension on storage” value is listed as “still stable”. Moreover, in [8] (oral suspension, XRPD), the “crystal form in oral suspension” value is recorded as “stable”. Further, in data set [9], the D10 turned out to be 7 μm and the D50 worked out at 18 μm. The “hygroscopicity (in words)” value in data set [10] is “not hygroscopic; also recorded: low hygroscopicity; also recorded: lower than that of the Known Crystal Form 1”. Also, in data set [11], the “Morphology (particle shape)” value was “fine crystals; also recorded: Fine particles”.

Turning to `CC(C)(C)c1nc(-c2cccc(NS(=O)(=O)c3c(F)cccc3F)c2F)c(-c2ccnc(N)n2)s1` [Dabrafenib, N-[3-[5-(2-aminopyrimidin-4-yl)-2-(tert-butyl)thiazo-4-lyl]-2-fluorophenyl]-2,6-difluorobenzenesulfonamide], the “inhibitory effect on Raf-family kinases” value in data set [12] is “has the inhibitory effection”. In the data set with BRAFV600E-mutan melanoma, the safety profile entry was “acceptable safety profile” and the therapeutical activity result is “has therapeutical activities”.
